Test results published in US20100240580A1, “AZOLOARINE DERIVATIVES, METHOD FOR THE PRODUCTION THEREOF, PHARMACEUTICALS CONTAINING THESE COMPOUNDS AND THE USE THEREOF” (SANOFI-AVENTIS, priority 2007, published 2010).

Target: T1, SCD1 (Rattus norvegicus, UniProt P07308)
T1 construct: The resuspended microsome fraction was stored at −80° C; from tissue; host or cells: liver microsomes of male Wistar rats fed a carbohydrate-rich, low-fat diet
T1 sequence (P07308 1-358): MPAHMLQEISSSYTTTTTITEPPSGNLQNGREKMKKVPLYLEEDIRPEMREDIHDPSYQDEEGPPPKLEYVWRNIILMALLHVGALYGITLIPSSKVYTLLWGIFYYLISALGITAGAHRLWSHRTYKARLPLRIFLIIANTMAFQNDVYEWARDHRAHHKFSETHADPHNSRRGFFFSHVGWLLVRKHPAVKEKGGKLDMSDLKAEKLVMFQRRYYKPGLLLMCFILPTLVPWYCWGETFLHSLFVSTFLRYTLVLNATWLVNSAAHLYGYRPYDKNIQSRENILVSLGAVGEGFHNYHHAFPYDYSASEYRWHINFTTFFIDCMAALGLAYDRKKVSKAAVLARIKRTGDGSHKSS
Assay: stearoyl-CoA desaturase (SCD1) activity, thin-layer chromatography assay with rat liver microsomes
Format: biochemical
Settings: compound at 10 μM, [1-14C]-stearic acid, 37° C., 1 h
Description: The activity of the compounds of the invention of the formula I was investigated in the following assay system with microsomal enzymes:
The livers of male Wistar rats which (to induce SCD1 expression) have been fed with a carbohydrate-rich, low-fat diet were homogenized with a Potter tissue homogenizer and differential centrifugation in a buffer which contained 250 mM sucrose and 5 mM HEPES (pH 7.0). The resuspended microsome fraction was stored at −80° C. The stearoyl-CoA desaturase activity was determined in a thin-layer chromatography assay with […] stearic acid. Stated briefly, the respective compounds of the invention (in DMSO in a final concentration of 1% [v/v]) were incubated with 15 μg of the rat liver microsomes in 200 μl of assay buffer (6 mM MgCl2, 250 mM sucrose, 150 mM KCl, 40 mM NaF, 100 mM Na2HPO4 (pH 7.4), 1.3 mM ATP, 1.5 mM reduced glutathione, 60 μM CoA, 0.33 mM nicotinamide and 0.94 mM NADH) at room temperature for 10 min. 0.5 μCi of [1-^14C]-stearic acid (55 mCi/mmol) was added, and the mixture was incubated at 37° C. for 1 h. The radiolabeled fatty acids were then hydrolyzed with 2.5 M KOH/MeOH:H2O (4:1) at 65° C. for 4 h, protonated with 280 μl of formic acid and extracted with 500 μl of hexane. The TLC plates were immersed in 10% AgNO3 and heat-activated before use. 150 μl of the hexane phase were put on the plates, and the TLC plates were developed in buffer (chloroform:methanol:acetic acid:water [90:8:1:0.8]) and dried. The plates were read in a PhosphoImager to quantify the SCD1 activity.
The skilled person is able to modify this assay to determine the inhibition of stearoyl-CoA desaturase activity in various respects.

Row | SMILES | % Inhibition (10 μM)
1 | CC(C)CCNC(=O)c1ccc2nc(-c3ccc(Oc4ccccc4Cl)cc3)[nH]c2c1 [Example 13, 2-[4-(2-Chlorophenoxy)phenyl]-3H-benzoimidazole-5-(3-methylbutyl)carboxamide] | 58%
2 | O=C(NCc1cccs1)c1ccc2nc(-c3ccc(C(=O)c4ccccc4C(F)(F)F)cc3)[nH]c2c1 [Example 19, 2-[4-(2-Trifluoromethylbenzoyl)phenyl]-3H-benzimidazole-5-(thiophen-2-ylmethyl)-carboxamide] | 100%
3 | O=C(NCc1nccs1)c1ccc2nc(-c3ccc(Oc4ccccc4Cl)cc3)[nH]c2c1 [Example 16, 2-[4-(2-Chlorophenoxy)phenyl]-3H-benzoimidazole-5-(thiazol-2-ylmethyl)carboxamide] | 86%
4 | CC(C)CNC(=O)c1ccc2nc(-c3ccc(C(=O)c4ccccc4C(F)(F)F)cc3)[nH]c2c1 [Example 20, 2-[4-(2-Trifluoromethylbenzoyl)phenyl]-3H-benzoimidazole-5-isobutylcarboxamide] | 77%
5 | O=C(NCc1nccs1)c1ccc2nc(-c3ccc(Oc4ccccc4C(F)(F)F)cc3)[nH]c2c1 [Example 25, 2-[4-(2-Trifluoromethylphenoxy)phenyl]-3H-benzimidazole-5-(thiazol-2-ylmethyl)carboxamide] | 100%
6 | O=C(NCCC1CC1)c1ccc2nc(-c3ccc(Oc4ccccc4C(F)(F)F)cc3)[nH]c2c1 [Example 23, 2-[4-(2-Trifluoromethylphenoxy)phenyl]-3H-benzimidazole-5-(2-cyclopropylethyl)-carboxamide] | 96%
7 | O=C(NCc1ccc(Cl)s1)c1ccc2nc(-c3ccc(Oc4ccccc4Cl)cc3)[nH]c2c1 [Example 15, 2-[4-(2-Chlorophenoxy)phenyl]-3H-benzoimidazole-5-(5-chlorothiophen-2-yl-methyl)carboxamide] | 95%
8 | O=C(NCCC1CC1)c1ccc2nc(-c3ccc(Oc4ccccc4Cl)cc3)[nH]c2c1 [Example 14, 2-[4-(2-Chlorophenoxy)phenyl]-3H-benzoimidazole-5-(2-cyclopropylethyl)carboxamide] | 80%
9 | CC(C)CCNC(=O)c1ccc2nc(-c3ccc(Oc4ccccc4C(F)(F)F)cc3)[nH]c2c1 [Example 24, 2-[4-(2-Trifluoromethylphenoxy)phenyl]-3H-benzimidazole-5-(3-methylbutyl)carboxamide] | 77%
10 | O=C(NCc1ccc(Cl)s1)c1ccc2nc(-c3ccc(Oc4ccccc4)cc3)[nH]c2c1 [Example 8, 2-(4-Phenoxyphenyl)-3H-benzimidazole-5-(5-chlorothiophen-2-ylmethyl)carboxamide] | 37%
11 | O=C(NCc1ccc(Cl)s1)c1ccc2nc(-c3ccc(C(=O)c4ccccc4C(F)(F)F)cc3)[nH]c2c1 [Example 27, 2-[4-(2-Trifluoromethylbenzoyl)phenyl]-3H-benzimidazole-5-(5-chlorothiophen-2-ylmethyl)-carboxamide] | 100%
12 | O=C(NCc1nccs1)c1ccc2nc(-c3ccc(Oc4ccccc4)cc3)[nH]c2c1 [Example 9, 2-(4-Phenoxyphenyl)-3H-benzimidazole-5-(thiazol-2-ylmethyl)carboxamide] | 29%
13 | O=C(NCc1nccs1)c1ccc2[nH]c(-c3ccc(C(=O)c4ccccc4C(F)(F)F)cc3)nc2c1 [Example 28, 2-[4-(2-Trifluoromethylbenzoyl)phenyl]-1H-benzimidazole-5-(thiazol-2-ylmethyl)-carboxamide] | 100%
